In brackets after ≈: the same amount, converted by molar mass.

Our source for the mortality and LC50 values is ChEMBL document CHEMBL3045861, “Synthesis and insecticidal activity of N-tert-butyl-N,N'-diacylhydrazines containing 1,2,3-thiadiazoles” (2011).

Holding throughout (assay type): functional
In experiment [1] the test system is Culex pipiens pallens. Put plainly: Insecticidal activity against Culex pipiens pallens (mosquito) fourth-instar larvae assessed as insect mortality at 2 ug/mL measured 96 hr post compound exposure.
In experiment [2] the test system is Plutella xylostella. As to the kind of experiment: Insecticidal activity against Plutella xylostella (diamondback moth) second-instar larvae grown on compound treated fresh cabbage leaves assessed as insect mortality at 400 ug/mL measured 96 hr post compound exposure by leaf film feeding method.
Experiment [3] relates to Plutella xylostella. As to the kind of experiment: Insecticidal activity against Plutella xylostella (diamondback moth) second-instar larvae grown on compound treated fresh cabbage leaves assessed as insect mortality at 200 ug/mL measured 96 hr post compound exposure by leaf film feeding method.
Experiment [4] has as its system Culex pipiens pallens. As to the kind of experiment: Insecticidal activity against Culex pipiens pallens (mosquito) fourth-instar larvae assessed as insect mortality at 0.5 ug/mL measured 96 hr post compound exposure.
Experiment [5] deals with Culex pipiens pallens. Put plainly: Insecticidal activity against Culex pipiens pallens (mosquito) fourth-instar larvae assessed as insect mortality at 1 ug/mL measured 96 hr post compound exposure.
Experiment [6] relates to Plutella xylostella. Put plainly: Insecticidal activity against Plutella xylostella (diamondback moth) second-instar larvae grown on compound treated fresh cabbage leaves assessed as insect mortality measured 96 hr post compound exposure by leaf film feeding method.

With `COc1ccc(C(=O)NN(C(=O)c2snnc2C)C(C)(C)C)cc1`, the mortality at 2 µg/mL in experiment [1] worked out at 10%. The mortality at 400 µg/mL in experiment [2] came to 28%.
Turning to `Cc1nnsc1C(=O)N(NC(=O)c1ccccc1Cl)C(C)(C)C`, the mortality at 2 µg/mL in experiment [1] was determined as 20%. The mortality at 200 µg/mL in experiment [3] was found to be 24%.
On to `Cc1nnsc1C(=O)N(NC(=O)c1cccc(C(F)(F)F)c1)C(C)(C)C`, for which the mortality at 0.5 µg/mL in experiment [4] is 0%. The mortality at 2 µg/mL in experiment [1] is 100%. In addition, the mortality at 200 µg/mL in experiment [3] is 32%. In addition, the mortality at 1 µg/mL in experiment [5] was 100%.
Take `Cc1nnsc1C(=O)N(NC(=O)c1ccc(Cl)cc1)C(C)(C)C`: the mortality at 2 µg/mL in experiment [1] was 20%. The mortality at 400 µg/mL in experiment [2] came to 43%.
`Cc1nnsc1C(=O)NN(C(=O)c1ccc(Cl)cc1)C(C)(C)C`: the mortality at 0.5 µg/mL in experiment [4] turned out to be 10%. Also, the mortality at 2 µg/mL in experiment [1] was found to be 100%. Besides, the mortality at 200 µg/mL in experiment [3] came out at 25%. Moreover, the mortality at 1 µg/mL in experiment [5] was 100%.
For the compound `Cc1ccccc1C(=O)NN(C(=O)c1snnc1C)C(C)(C)C`, the mortality at 0.5 µg/mL in experiment [4] was 30%. In addition, the mortality at 2 µg/mL in experiment [1] is 100%. In addition, in experiment [3], the mortality at 200 µg/mL stood at 68%. For the same compound, the mortality at 1 µg/mL in experiment [5] stood at 100%.
As to `COc1ccccc1C(=O)NN(C(=O)c1snnc1C)C(C)(C)C`, in experiment [1], the mortality at 2 µg/mL came out at 10%. In addition, the mortality at 200 µg/mL in experiment [3] worked out at 29%.
Take `Cc1ccccc1C(=O)N(NC(=O)c1snnc1C)C(C)(C)C`: the mortality at 2 µg/mL in experiment [1] was found to be 20%. In experiment [3], the mortality at 200 µg/mL amounted to 8%.
As to `COc1ccccc1C(=O)N(NC(=O)c1snnc1C)C(C)(C)C`, the mortality at 2 µg/mL in experiment [1] was determined as 10%. Also, the mortality at 400 µg/mL in experiment [2] turned out to be 30%.
Turning to `COc1cccc(C(=O)N(NC(=O)c2snnc2C)C(C)(C)C)c1`, the mortality at 2 µg/mL in experiment [1] was determined as 20%. For the same compound, the mortality at 200 µg/mL in experiment [3] came to 37%.
The matching figures for `Cc1ccc(C(=O)N(NC(=O)c2snnc2C)C(C)(C)C)cc1`: 10% and 15%.
With `Cc1nnsc1C(=O)NN(C(=O)c1cccc(C(F)(F)F)c1)C(C)(C)C`, in experiment [1], the mortality at 2 µg/mL is 40%. Further, the mortality at 200 µg/mL in experiment [3] came out at 46%.
The matching figures for `Cc1nnsc1C(=O)N(NC(=O)c1cccc([N+](=O)[O-])c1)C(C)(C)C`: 10% and 34%.
Consider `Cc1cccc(C(=O)NN(C(=O)c2snnc2C)C(C)(C)C)c1`, for which, in experiment [1], the mortality at 2 µg/mL stood at 20%. The mortality at 200 µg/mL in experiment [3] came to 12%.
In the case of `Cc1nnsc1C(=O)NN(C(=O)c1ccc(C(F)(F)F)cc1)C(C)(C)C`, in experiment [1], the mortality at 2 µg/mL was found to be 30%. Moreover, in experiment [3], the mortality at 200 µg/mL came out at 5%.
For `Cc1nnsc1C(=O)NN(C(=O)c1cccc(Cl)c1)C(C)(C)C`, in that order: 30% and 0%.
The matching figures for `Cc1cccc(C(=O)N(NC(=O)c2snnc2C)C(C)(C)C)c1`: 20% and 0%.
As for `COc1cccc(C(=O)NN(C(=O)c2snnc2C)C(C)(C)C)c1`, in experiment [1], the mortality at 2 µg/mL turned out to be 10%. For the same compound, the mortality at 400 µg/mL in experiment [2] is 10%.
Take `Cc1nnsc1C(=O)NN(C(=O)c1ccccc1[N+](=O)[O-])C(C)(C)C`: the mortality at 2 µg/mL in experiment [1] was 10%. The mortality at 400 µg/mL in experiment [2] came out at 45%.
In the case of `Cc1ccc(C(=O)NN(C(=O)c2snnc2C)C(C)(C)C)cc1`, the mortality at 2 µg/mL in experiment [1] turned out to be 0%. In experiment [3], the mortality at 200 µg/mL stood at 37%.
On to `Cc1nnsc1C(=O)N(NC(=O)c1ccc(C(F)(F)F)cc1)C(C)(C)C`, for which the mortality at 2 µg/mL in experiment [1] is 40%. The mortality at 200 µg/mL in experiment [3] was found to be 13%.
For `COc1ccc(C(=O)N(NC(=O)c2snnc2C)C(C)(C)C)cc1`, in that order: 10% and 25%.
For `Cc1nnsc1C(=O)N(NC(=O)c1cccc(Cl)c1)C(C)(C)C`, in that order: 0% and 25%.
As to `Cc1nnsc1C(=O)NN(C(=O)c1ccc([N+](=O)[O-])cc1)C(C)(C)C`, the mortality at 2 µg/mL in experiment [1] was found to be 10%. The mortality at 200 µg/mL in experiment [3] is 5%.
`CCc1ccc(C(=O)NN(C(=O)c2cc(C)cc(C)c2)C(C)(C)C)cc1` [TEBUFENOZIDE]: the LC50 in experiment [6] is 26 µg/mL (≈ 73.8 µM). The mortality at 0.5 µg/mL in experiment [4] worked out at 60%. The mortality at 2 µg/mL in experiment [1] was 100%. The mortality at 200 µg/mL in experiment [3] was 40%. Besides, the mortality at 1 µg/mL in experiment [5] was 100%.
With `Cc1nnsc1C(=O)N(NC(=O)c1ccccc1[N+](=O)[O-])C(C)(C)C`, the mortality at 2 µg/mL in experiment [1] is 20%. The mortality at 200 µg/mL in experiment [3] was 16%.
On to `Cc1nnsc1C(=O)NN(C(=O)c1ccccc1C(F)(F)F)C(C)(C)C`, for which the mortality at 2 µg/mL in experiment [1] came to 10%. In experiment [3], the mortality at 200 µg/mL worked out at 15%.
The matching figures for `Cc1nnsc1C(=O)N(NC(=O)c1ccc([N+](=O)[O-])cc1)C(C)(C)C`: 30% and 33%.
For `Cc1nnsc1C(=O)NN(C(=O)c1cccc([N+](=O)[O-])c1)C(C)(C)C`, in experiment [1], the mortality at 2 µg/mL is 30%. For the same compound, the mortality at 400 µg/mL in experiment [2] amounted to 23%.
On to `Cc1nnsc1C(=O)NN(C(=O)c1ccccc1Cl)C(C)(C)C`, for which the LC50 in experiment [6] was determined as 28 µg/mL (≈ 79.4 µM). Besides, in experiment [1], the mortality at 2 µg/mL is 10%. In experiment [3], the mortality at 200 µg/mL is 79%.
